Assay results as given in patent US10494384B2, “Urea peptoid boric acid compound, pharmaceutical composition thereof, preparation method therefor, and uses thereof” (Peking University, priority 2015, dated 2019).
Like-named read-outs stand apart in the source and are kept apart here.

How the values were obtained:
[1] = biological target: T1, 20S proteasome extracted from rat liver (CT-L) (Rattus norvegicus, UniProt P18421+P28075); experiment: inhibition of 20S proteasome, CT-L activity (fluorescent peptide); assay type: biochemical; conditions: for inhibition at 0.2 µM / inhibition at 2 µM / inhibition at 20 µM: rat liver 20S proteasome, 37° C., 1 h, read-out: inhibition rates (%) CT-L
T1 construct: 20S proteasome extracted from rat liver; from tissue; host or cells: rat liver
Procedure: (§1) 1 μg of 20S proteasome extracted from rat liver was incubated with a 100 μL solution containing various concentrations of the present compounds, 50 μM fluorescent peptides and 20 mM Tris-HCl at 37° C. for 1 h, respectively. […] 0.1% DMSO was used as a solvent control. Compared with the fluorescence of solvent control, an inhibition rate or IC50 value was calculated.

[2] = biological target: T2, 20S proteasome extracted from rat liver (PGPH) (Rattus norvegicus, UniProt P28073+Q9JHW0); experiment: inhibition of 20S proteasome, PGPH activity (fluorescent peptide); assay type: biochemical; conditions: for inhibition at 0.2 µM / inhibition at 2 µM / inhibition at 20 µM: rat liver 20S proteasome, 37° C., 1 h, read-out: inhibition rates (%) PGPH
T2 construct: 20S proteasome extracted from rat liver; from tissue; host or cells: rat liver
Procedure: as §1

[3] = biological target: T3, 20S proteasome extracted from rat liver (T-L) (Rattus norvegicus, UniProt P40112+Q9JHW0); experiment: inhibition of 20S proteasome, T-L activity (fluorescent peptide); assay type: biochemical; conditions: for inhibition at 0.2 µM / inhibition at 2 µM / inhibition at 20 µM: rat liver 20S proteasome, 37° C., 1 h, read-out: inhibition rates (%) T-L
T3 construct: 20S proteasome extracted from rat liver; from tissue; host or cells: rat liver
Procedure: as §1

[4] = test system: Hela, human cervical carcinoma; experiment: preliminary anti-tumor screening in vitro, MTT method; assay type: cell-based; conditions: read-out: inhibition rates (%) Hela
Procedure, shortened: (§2)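 Inhibition rates measured at 0.1, 1 or 10 μM compound; cell growth read by MTT for Hela, SRB for BGC-823, MCF-7 and A549.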

[5] = test system: A549, human lung cancer; experiment: preliminary anti-tumor screening in vitro, SRB method; assay type: cell-based; conditions: read-out: inhibition rates (%) A549
Procedure, shortened: as §2

[6] = test system: BGC-823, liver cancer; experiment: as above; assay type: cell-based; conditions: Homo sapiens, read-out: inhibition rates (%) BGC-823
Procedure, shortened: as §2

[7] = test system: MCF-7, breast cancer; experiment: as above; assay type: cell-based; conditions: Homo sapiens, read-out: inhibition rates (%) MCF-7; for inhibition at 0.1 µM: MCF7, 0.1 μM; for inhibition at 1 µM: MCF7, 1 μM; for inhibition at 10 µM: MCF7, 10 μM
Procedure, shortened: as §2

[8] = test system: 95D; experiment: anti-tumor activity in vitro (IC50), MTT; assay type: cell-based; conditions: Homo sapiens, 72 h
Procedure, shortened: (§3)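 Following a 24 h settling period at 3.5×10^4 cells/mL, triplicate wells got compound or 0.5% DMSO control for 72 h (37° C, 5% CO2).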

[9] = test system: A549; experiment: anti-tumor activity in vitro (IC50), MTT; assay type: cell-based; conditions: Homo sapiens, 72 h
Procedure, shortened: as §3

[10] = test system: BEL7404; experiment: anti-tumor activity in vitro (IC50), MTT; assay type: cell-based; conditions: Homo sapiens, BEL-7404, 72 h
Procedure, shortened: as §3

[11] = test system: HCT116; experiment: anti-tumor activity in vitro (IC50), MTT; assay type: cell-based; conditions: Homo sapiens, HCT-116, 72 h
Procedure, shortened: as §3

[12] = test system: HL-60; experiment: anti-tumor activity in vitro (IC50), MTT; assay type: cell-based; conditions: Homo sapiens, 72 h
Procedure, shortened: as §3

[13] = test system: Hela; experiment: anti-tumor activity in vitro (IC50), MTT; assay type: cell-based; conditions: Homo sapiens, 72 h
Procedure, shortened: as §3

[14] = test system: HepG2 liver cancer cells; experiment: anti-tumor activity in vitro (IC50), MTT; assay type: cell-based; conditions: Homo sapiens, 72 h
Procedure, shortened: as §3

[15] = test system: MDA-MB-231; experiment: anti-tumor activity in vitro (IC50), MTT; assay type: cell-based; conditions: Homo sapiens, 72 h
Procedure, shortened: as §3

[16] = test system: MGC803 stomach cancer cells; experiment: anti-tumor activity in vitro (IC50), MTT; assay type: cell-based; conditions: Homo sapiens, MGC-803, 72 h
Procedure, shortened: as §3

[17] = test system: MKN45; experiment: anti-tumor activity in vitro (IC50), MTT; assay type: cell-based; conditions: Homo sapiens, MKN-45, 72 h
Procedure, shortened: as §3

[18] = test system: SKOV3; experiment: anti-tumor activity in vitro (IC50), MTT; assay type: cell-based; conditions: Homo sapiens, SK-OV-3, 72 h
Procedure, shortened: as §3

[19] = test system: SW1990; experiment: anti-tumor activity in vitro (IC50), MTT; assay type: cell-based; conditions: Homo sapiens, 72 h
Procedure, shortened: as §3

[20] = liver cancer cells, read-out: IC50 (μM) HepG2
[21] = stomach cancer cells, MTT, read-out: IC50 (μM) MGC803

COc1ccc(NC(=O)[C@H](Cc2ccccc2)NC(=O)N[C@@H](CC(C)C)B2OC3C[C@H]4C[C@H](C4(C)C)[C@@]3(C)O2)cc1 (stereo partly drawn) [Example 9, N-L-leucine borate pinanediol ester-N′-(p-methoxy-phenylcarbamoyl)-L-phenylalanine-urea]
inhibition at 0.2 µM [1]: -12.2% | inhibition at 2 µM [1]: 44.9% | inhibition at 20 µM [1]: 76.8% | inhibition at 0.2 µM [2]: 1.67% | inhibition at 2 µM [2]: 6.26% | inhibition at 20 µM [2]: 34.1% | inhibition at 0.2 µM [3]: 1.54% | inhibition at 2 µM [3]: 9% | inhibition at 20 µM [3]: 21.5% | inhibition at 0.1 µM [4]: 11.8% | inhibition at 1 µM [4]: 14.3% | inhibition at 10 µM [4]: 32.1% | inhibition at 0.1 µM [5]: 4.05% | inhibition at 1 µM [5]: 10.3% | inhibition at 10 µM [5]: 36.2% | inhibition at 0.1 µM [6]: 8.33% | inhibition at 1 µM [6]: 7.84% | inhibition at 10 µM [6]: 14.7% | inhibition at 0.1 µM [7]: 6.66% | inhibition at 1 µM [7]: 11.7% | inhibition at 10 µM [7]: 13.8% | melting point: 78 to 80 °C

COc1ccc(OC)c(CNC(=O)N[C@@H](Cc2ccccc2)C(=O)N[C@@H](CC(C)C)B2OC3CC4CC(C4(C)C)[C@]3(C)O2)c1 (stereo partly drawn) [Example 19, N-L-phenylalanyl-L-leucine borate pinanediol ester-N′-(2,5-dimethoxy-benzylamine)-urea]
inhibition at 0.2 µM [1]: 91.7% | inhibition at 2 µM [1]: 97.3% | inhibition at 20 µM [1]: 98.3% | inhibition at 0.2 µM [2]: 16.9% | inhibition at 2 µM [2]: 82.3% | inhibition at 20 µM [2]: 97.2% | inhibition at 0.2 µM [3]: 18.2% | inhibition at 2 µM [3]: 69.1% | inhibition at 20 µM [3]: 90.7% | inhibition at 0.1 µM [4]: 39.8% | inhibition at 1 µM [4]: 44% | inhibition at 10 µM [4]: 55% | inhibition at 0.1 µM [5]: 53.1% | inhibition at 1 µM [5]: 65.6% | inhibition at 10 µM [5]: 76.1% | inhibition at 0.1 µM [6]: 43.7% | inhibition at 1 µM [6]: 46.6% | inhibition at 10 µM [6]: 57.2% | inhibition at 0.1 µM [7]: 23.4% | inhibition at 1 µM [7]: 38.1% | inhibition at 10 µM [7]: 61.7% | melting point: 88 to 90 °C

CC(C)C[C@H](NC(=O)[C@H](Cc1ccccc1)NC(=O)NCc1cccc(Cl)c1Cl)B(O)O [Example 20, N-L-phenylalanyl-L-leucine borate-N′-(2,3-dichloro-benzylamine)-urea]
inhibition at 0.2 µM [1]: 91.9% | inhibition at 2 µM [1]: 96.5% | inhibition at 20 µM [1]: 97% | inhibition at 0.2 µM [2]: -23% | inhibition at 2 µM [2]: -26.6% | inhibition at 20 µM [2]: -28.9% | inhibition at 0.2 µM [3]: 35.6% | inhibition at 2 µM [3]: 83.7% | inhibition at 20 µM [3]: 92.6% | inhibition at 0.1 µM [4]: 17.4% | inhibition at 1 µM [4]: 42.5% | inhibition at 10 µM [4]: 75.7% | inhibition at 0.1 µM [5]: 65% | inhibition at 1 µM [5]: 68.2% | inhibition at 10 µM [5]: 69.3% | inhibition at 0.1 µM [6]: 50% | inhibition at 1 µM [6]: 47.1% | inhibition at 10 µM [6]: 50.2% | inhibition at 0.1 µM [7]: 32.2% | inhibition at 1 µM [7]: 42.2% | inhibition at 10 µM [7]: 45.5% | IC50 [8]: 41 nM | IC50 [9]: 1020 nM | IC50 [10]: 42.2 nM | IC50 [11]: 23 nM | IC50 [12]: 27 nM | IC50 [13]: 117 nM | IC50 ([14]; read-out: IC50 HepG2): 0.026 µM | IC50 [14, 20]: 0.0378 µM | IC50 [15]: 25.1 nM | IC50 ([16]; MTT, read-out: IC50 MGC803): 0.0175 µM | IC50 [16, 21]: 0.00733 µM | IC50 [17]: 20.1 nM | IC50 [18]: 46.3 nM | IC50 [19]: 80.3 nM | melting point: 119 to 122 °C

CC(C)C[C@H](NC(=O)[C@H](Cc1ccccc1)NC(=O)N1CCc2ccccc2C1)B(O)O [Example 28, N-L-phenylalanyl-L-leucine borate-N′-1,2,3,4-tetrahydroisoquinoline-urea]
IC50 [2]: 20 nM | IC50 [3]: 2380 nM | IC50 [13]: 532 nM | IC50 ([14]; read-out: IC50 HepG2): 0.00838 µM | IC50 [14, 20]: 0.0194 µM | IC50 ([16]; MTT, read-out: IC50 MGC803): 0.00498 µM | IC50 [16, 21]: 0.00396 µM

CC(C)C[C@H](NC(=O)[C@H](Cc1ccccc1)NC(=O)NCc1ccc(F)c(F)c1)B(O)O [Example 35, N-L-phenylalanyl-L-leucine borate-N′-3,4-difluoro-benzylamine-urea]
IC50 [1]: 2 nM | IC50 [2]: 110 nM | IC50 [3]: 340 nM | IC50 [13]: 255 nM | IC50 ([14]; read-out: IC50 HepG2): 0.019 µM | IC50 [14, 20]: 0.0388 µM | IC50 ([16]; MTT, read-out: IC50 MGC803): 0.0167 µM | IC50 [16, 21]: 0.0067 µM

CC(C)C[C@H](NC(=O)[C@H](Cc1ccccc1)NC(=O)c1cnccn1)B(O)O [positive control, bortezomib, reference compound]
inhibition at 0.1 µM [4]: 41.6% | inhibition at 1 µM [4]: 43.2% | inhibition at 10 µM [4]: 47.3% | inhibition at 0.1 µM [5]: 59.9% | inhibition at 1 µM [5]: 63.8% | inhibition at 10 µM [5]: 66.1% | inhibition at 0.1 µM [6]: 41% | inhibition at 1 µM [6]: 43.6% | inhibition at 10 µM [6]: 46.8% | inhibition at 0.1 µM [7]: 27.6% | inhibition at 1 µM [7]: 32.8% | inhibition at 10 µM [7]: 40.7% | IC50 [12]: 7.6 nM | IC50 [13]: 224 nM | IC50 ([14]; read-out: IC50 HepG2): 0.00161 µM | IC50 [14, 20]: 0.0366 µM | IC50 ([16]; MGC80-3, MTT, value ± spread, read-out: IC50 (μM), growth of stomach cancer cells (MGC80-3)): 0.0057 ± 0.001 µM | IC50 ([16]; MTT, read-out: IC50 MGC803): 0.00654 µM | IC50 [16, 21]: 0.00578 µM
